Assay results taken from patent publication US8278345B2, “Inhibitors of glutaminyl cyclase” (Probiodrug AG, priority 2006, dated 2012).

Target: hQC (Homo sapiens, UniProt Q16769)
Experiment: Inhibitor assay for glutaminyl cyclase activity (fluorometric, H-Gln-βNA / H-Gln-AMC)
Assay type: biochemical
Settings: read-out: IC50
Method: All measurements were performed with a BioAssay Reader HTS-7000Plus for microplates (Perkin Elmer) at 30° C. QC activity was evaluated fluorometrically using H-Gln-βNA. The samples consisted of 0.2 mM fluorogenic substrate, 0.25 U pyroglutamyl aminopeptidase (Unizyme, Hørsholm, Denmark) in 0.2 M Tris/HCl, pH 8.0 containing 20 mM EDTA and an appropriately diluted aliquot of QC in a final volume of 250 μl. Excitation/emission wavelengths were 320/410 nm. The assay reactions were initiated by addition of glutaminyl cyclase. QC activity was determined from a standard curve of β-naphthylamine under assay conditions. One unit is defined as the amount of QC catalyzing the formation of 1 μmol pGlu-βNA from H-Gln-βNA per minute under the described conditions.
In a second fluorometric assay, QC activity was determined using H-Gln-AMC as substrate. Reactions were carried out at 30° C. utilizing the NOVOStar reader for microplates (BMG labtechnologies). The samples consisted of varying concentrations of the fluorogenic substrate, 0.1 U pyroglutamyl aminopeptidase (Qiagen) in 0.05 M Tris/HCl, pH 8.0 containing 5 mM EDTA and an appropriately diluted aliquot of QC in a final volume of 250 μl. Excitation/emission wavelengths were 380/460 nm. The assay reactions were initiated by addition of glutaminyl cyclase. QC activity was determined from a standard curve of 7-amino-4-methylcoumarin under assay conditions. The kinetic data were evaluated using GraFit sofware.
For inhibitor testing, the sample composition was the same as described above, except of the putative inhibitory compound added. For a rapid test of QC-inhibition, samples contained 4 mM of the respective inhibitor and a substrate concentration at 1 KM. For detailed investigations of the inhibition and determination of Ki-values, influence of the inhibitor on the auxiliary enzymes was investigated first. In every case, there was no influence on either enzyme detected, thus enabling the reliable determination of the QC inhibition. The inhibitory constant was evaluated by fitting the set of progress curves to the general equation for competitive inhibition using GraFit software.

hQC, sequence (Q16769 29-361): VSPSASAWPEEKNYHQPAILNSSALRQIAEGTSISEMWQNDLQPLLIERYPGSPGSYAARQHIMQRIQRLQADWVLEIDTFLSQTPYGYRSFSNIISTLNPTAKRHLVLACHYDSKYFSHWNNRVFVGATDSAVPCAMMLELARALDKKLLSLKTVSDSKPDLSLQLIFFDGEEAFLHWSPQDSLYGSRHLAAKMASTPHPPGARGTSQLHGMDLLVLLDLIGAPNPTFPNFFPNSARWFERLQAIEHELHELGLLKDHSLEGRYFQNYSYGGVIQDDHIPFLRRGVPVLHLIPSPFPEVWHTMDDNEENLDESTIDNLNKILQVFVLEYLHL

| SMILES | IC50 [nM] |
| --- | --- |
| CCC(C)C1C(F)=C(O)C(=O)N1CCCn1ccnc1 (stereo not shown) [Compound 1, 5-sec-Butyl-4-fluoro-3-hydroxy-1-(3-imidazol-1-yl-propyl)-1,5-dihydro-pyrrol-2-one] | 3100 |
| CCCCCC1C(F)=C(O)C(=O)N1CCCn1ccnc1 (stereo not shown) [Compound 2, 4-Fluoro-3-hydroxy-1-(3-imidazol-1-yl-propyl)-5-pentyl-1,5-dihydro-pyrrol-2-one] | 4900 |
| CC1C(F)=C(O)C(=O)N1CCCn1ccnc1 (stereo not shown) [Compound 3, 4-Fluoro-3-hydroxy-1-(3-imidazol-1-yl-propyl)-5-methyl-1,5-dihydro-pyrrol-2-one] | 8500 |
| O=C1C(O)=C(c2cccc(O)c2)C(c2cc(Cl)cc(Cl)c2O)N1CCCn1ccnc1 (stereo not shown) [Compound 4, 5-(3,5-Dichloro-2-hydroxy-phenyl)-3-hydroxy-4-(3-hydroxy-phenyl)-1-(3-imidazol-1-yl-propyl)-1,5-dihydro-pyrrol-2-one] | 2200 |
| Cc1ccc(C2C(c3cccc(O)c3)=C(O)C(=O)N2CCCn2ccnc2)cc1 (stereo not shown) [Compound 5, 3-Hydroxy-4-(3-hydroxy-phenyl)-1-(3-imidazol-1-yl-propyl)-5-p-tolyl-1,5-dihydro-pyrrol-2-one] | 2200 |
| CCC/C=C/C1C(c2cccc(O)c2)=C(O)C(=O)N1CCCn1ccnc1 (stereo not shown) [Compound 6, 3-Hydroxy-4-(3-hydroxy-phenyl)-1-(3-imidazol-1-yl-propyl)-5-(pent-1-enyl)-1,5-dihydro-pyrrol-2-one] | 5800 |
| CCCC1C(c2cccc(O)c2)=C(O)C(=O)N1CCCn1ccnc1 (stereo not shown) [Compound 7, 3-Hydroxy-4-(3-hydroxy-phenyl)-1-(3-imidazol-1-yl-propyl)-5-propyl-1,5-dihydro-pyrrol-2-one] | 400 |
| O=C1C(O)=C(c2cccc(O)c2)C(c2cc[nH]n2)N1CCCn1ccnc1 (stereo not shown) [Compound 8, 3-Hydroxy-4-(3-hydroxy-phenyl)-1-(3-imidazol-1-yl-propyl)-5-(1H-pyrazol-3-yl)-1,5-dihydro-pyrrol-2-one] | 9400 |
| O=C1C(O)=C(c2cccc(O)c2)C(C(O)CO)N1CCCn1ccnc1 (stereo not shown) [Compound 9, 5-(1,2-Dihydroxy-ethyl)-3-hydroxy-4-(3-hydroxy-phenyl)-1-(3-imidazol-1-yl-propyl)-1,5-dihydro-pyrrol-2-one] | 2200 |
| CC(C)/C=C/C1C(c2cccc(O)c2)=C(O)C(=O)N1CCCn1ccnc1 (stereo not shown) [Compound 10, 3-Hydroxy-4-(3-hydroxy-phenyl)-1-(3-imidazol-1-yl-propyl)-5-(3-methyl-but-1-enyl)-1,5-dihydro-pyrrol-2-one] | 5800 |
| Cc1ccc(C2C(c3cccc(O)c3)=C(O)C(=O)N2CCCn2ccnc2)o1 (stereo not shown) [Compound 11, 3-Hydroxy-4-(3-hydroxy-phenyl)-1-(3-imidazol-1-yl-propyl)-5-(5-methyl-furan-2-yl)-1,5-dihydro-pyrrol-2-one] | 2200 |
| O=C1C(O)=C(c2cccc(O)c2)C(c2ccc3[nH]ccc3c2)N1CCCn1ccnc1 (stereo not shown) [Compound 12, 3-Hydroxy-4-(3-hydroxy-phenyl)-1-(3-imidazol-1-yl-propyl)-5-(1H-indol-5-yl)-1,5-dihydro-pyrrol-2-one] | 1300 |
| COc1ccc(C2C(c3cccc(O)c3)=C(O)C(=O)N2CCCn2ccnc2)cc1 (stereo not shown) [Compound 13, 3-Hydroxy-4-(3-hydroxy-phenyl)-1-(3-imidazol-1-yl-propyl)-5-(4-methoxy-phenyl)-1,5-dihydro-pyrrol-2-one] | 2200 |
| O=C1C(O)=C(c2cccc(O)c2)C(c2ccccc2O)N1CCCn1ccnc1 (stereo not shown) [Compound 14, 3-Hydroxy-5-(2-hydroxy-phenyl)-4-(3-hydroxy-phenyl)-1-(3-imidazol-1-yl-propyl)-1,5-dihydro-pyrrol-2-one] | 2200 |
| Cc1ccc(C2C(c3cccc(O)c3)=C(O)C(=O)N2CCCn2ccnc2)cc1C (stereo not shown) [Compound 15, 5-(3,4-Dimethyl-phenyl)-3-hydroxy-4-(3-hydroxy-phenyl)-1-(3-imidazol-1-yl-propyl)-1,5-dihydro-pyrrol-2-one] | 1300 |
| CCCCCC1C(c2cccc(O)c2)=C(O)C(=O)N1CCCn1ccnc1 (stereo not shown) [Compound 16, 3-Hydroxy-4-(3-hydroxy-phenyl)-1-(3-imidazol-1-yl-propyl)-5-pentyl-1,5-dihydro-pyrrol-2-one] | 400 |

Now from value to compound:

| IC50 [nM] | SMILES |
| --- | --- |
| 5800 | O=C1C(O)=C(c2cccc(O)c2)C(c2ccc(CO)o2)N1CCCn1ccnc1 (stereo not shown) [Compound 17, 3-Hydroxy-5-(5-hydroxymethyl-furan-2-yl)-4-(3-hydroxy-phenyl)-1-(3-imidazol-1-yl-propyl)-1,5-dihydro-pyrrol-2-one] |
| 9400 | O=C1C(O)=C(c2cccc(O)c2)C(c2c[nH]c3ccccc23)N1CCCn1ccnc1 (stereo not shown) [Compound 18, 3-Hydroxy-4-(3-hydroxy-phenyl)-1-(3-imidazol-1-yl-propyl)-5-(1H-indol-3-yl)-1,5-dihydro-pyrrol-2-one] |
| 1300 | O=C1C(O)=C(c2cccc(O)c2)C(C2CC2)N1CCCn1ccnc1 (stereo not shown) [Compound 19, 5-Cyclopropyl-3-hydroxy-4-(3-hydroxy-phenyl)-1-(3-imidazol-1-yl-propyl)-1,5-dihydro-pyrrol-2-one] |
| 400 | CC1=C(O)C(=O)N(CCCn2ccnc2)C1c1cc(Cl)cc(Cl)c1O (stereo not shown) [Compound 20, 5-(3,5-Dichloro-2-hydroxy-phenyl)-3-hydroxy-1-(3-imidazol-1-yl-propyl)-4-methyl-1,5-dihydro-pyrrol-2-one] |
| 2200 | CC1=C(O)C(=O)N(CCCn2ccnc2)C1c1ccc(C)cc1 (stereo not shown) [Compound 21, 3-Hydroxy-1-(3-imidazol-1-yl-propyl)-4-methyl-5-p-tolyl-1,5-dihydro-pyrrol-2-one] |
| 4900 | CCCC1C(C)=C(O)C(=O)N1CCCn1ccnc1 (stereo not shown) [Compound 22, 3-Hydroxy-1-(3-imidazol-1-yl-propyl)-4-methyl-5-propyl-1,5-dihydro-pyrrol-2-one] |
| 7600 | CC1=C(O)C(=O)N(CCCn2ccnc2)C1c1cc[nH]n1 (stereo not shown) [Compound 23, 3-Hydroxy-1-(3-imidazol-1-yl-propyl)-4-methyl-5-(1H-pyrazol-3-yl)-1,5-dihydro-pyrrol-2-one] |
| 5800 | CC1=C(O)C(=O)N(CCCn2ccnc2)C1/C=C/C(C)C (stereo not shown) [Compound 24, 3-Hydroxy-1-(3-imidazol-1-yl-propyl)-4-methyl-5-(3-methyl-but-1-enyl)-1,5-dihydro-pyrrol-2-one] |
| 4900 | CC1=C(O)C(=O)N(CCCn2ccnc2)C1c1ccc(C)o1 (stereo not shown) [Compound 25, 3-Hydroxy-1-(3-imidazol-1-yl-propyl)-4-methyl-5-(5-methyl-furan-2-yl)-1,5-dihydro-pyrrol-2-one] |
| 40 | CC1=C(O)C(=O)N(CCCn2ccnc2)C1c1ccc2[nH]ccc2c1 (stereo not shown) [Compound 26, 3-Hydroxy-1-(3-imidazol-1-yl-propyl)-5-(1H-indol-5-yl)-4-methyl-1,5-dihydro-pyrrol-2-one] |
| 4000 | COc1ccc(C2C(C)=C(O)C(=O)N2CCCn2ccnc2)cc1 (stereo not shown) [Compound 27, 3-Hydroxy-1-(3-imidazol-1-yl-propyl)-5-(4-methoxy-phenyl)-4-methyl-1,5-dihydro-pyrrol-2-one] |
| 400 | CC1=C(O)C(=O)N(CCCn2ccnc2)C1c1ccccc1O (stereo not shown) [Compound 28, 3-Hydroxy-5-(2-hydroxy-phenyl)-1-(3-imidazol-1-yl-propyl)-4-methyl-1,5-dihydro-pyrrol-2-one] |
